For eight molecules, GI50 and TGI results are on record in PubChem BioAssay (NCI).

What all share (assay): growth of human tumour cells (NCI), 48 h
The test system of assay [1] is SF-268 CNS.
Assay [2] deals with HCC-2998 colon.
In assay [3] the test system is MDA-MB-231 breast.
Assay [4] deals with SNB-19 CNS.
The subject of assay [5] is UO-31 renal.
Assay [6] relates to CAKI-1 renal.
The subject of assay [7] is BT-549 breast.
In assay [8] the test system is MDA-MB-435.
The subject of assay [9] is DU-145 prostate.
The test system of assay [10] is K-562 leukemia.

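96-well plates; 48 h exposure; 5 concentrations. Endpoints by linear interpolation between flanking doses. Not reached: highest tested concentration assigned. GI50 marks 50% less growth. Definition used: TGI = concentration required for complete inhibition of growth.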

For the molecule `CC[C@H]1OC(=O)[C@H](C)[C@@H](O[C@H]2C[C@@](C)(OC)[C@@H](O)[C@H](C)O2)[C@H](C)[C@@H](O[C@@H]2O[C@H](C)C[C@H](N(C)C)[C@H]2O)[C@](C)(OC)C/C(C)=C2/O[C@@]1(C)C=C2C`, the GI50 in assay [1] was 1.6 µM; in assay [2] it was 1.14 µM; in assay [3], 1.67 µM; in assay [4], 1.7 µM; in assay [5], 1.37 µM; in assay [6], 1.51 µM. Besides, the GI50 in [7] was 1.66 µM; in [8], 1.67 µM; in assay [9], 1.82 µM; in assay [10], 1.56 µM. For the same molecule, the TGI in assay [1] is 3.3 µM; in assay [2], 2.53 µM; in [3], 3.13 µM; in [4], 3.13 µM; in [5], 2.65 µM; in assay [6] it was 2.93 µM. For the same molecule, the TGI in [7] turned out to be 3.28 µM; in assay [8], 3.15 µM; in assay [9], 3.39 µM; in assay [10], 4.8 µM.

Turning to `CCOC(=O)/C(=C\c1ccc2ccccc2c1)P(=O)(OCC)OCC`, the GI50 in assay [1] was 3.28 µM; in assay [2], 1.96 µM; in assay [3], 3.57 µM; in [4], 4.45 µM; in [5], 1.72 µM; in [6] it was 3.06 µM. In addition, the GI50 was 2.3 µM in [7], 2.92 µM in assay [8], 2.63 µM in [9] and 2.73 µM in assay [10]. The TGI was 14.3 µM in assay [1]; 3.43 µM in [2]; 13.4 µM in assay [3]; 18.6 µM in assay [4]; 4.4 µM in assay [5]; 12 µM in assay [6]. For the same molecule, the TGI in assay [7] amounted to 5.88 µM; in [8], 13.3 µM; in assay [9], 9.32 µM; in assay [10] it was 50.8 µM.

On to `O=c1[nH]cnc2n[nH]nc12`, for which the TGI in [1] was greater than 94.3 µM; in [2] it was greater than 74.7 µM; in [3], greater than 100 µM; in assay [4], greater than 100 µM; in assay [5], greater than 100 µM; in [6] it was greater than 100 µM. In addition, the TGI in assay [7], in assay [8], in assay [9] and in assay [10] was greater than 100 µM each time. Further, the GI50 is 1.67 µM in assay [3], 2.65 µM in [7], 0.448 µM in assay [8] and 2.89 µM in assay [9].

With `COc1ccc(-c2c(N)noc2-c2cc(OC)c3c(c2)OCCO3)cc1`, the GI50 in assay [1] is 0.0481 µM; in assay [2], 0.0173 µM; in assay [3], 0.0851 µM; in assay [4], 0.0277 µM; in assay [5], less than 0.024 µM; in [6], less than 0.01 µM. The GI50 in [7] was 0.0285 µM; in assay [8], less than 0.01 µM; in assay [9] it was 0.0202 µM; in [10], less than 0.01 µM. For the same molecule, the TGI in assay [1] is greater than 100 µM; in assay [2], 0.902 µM; in assay [3], greater than 43.3 µM; in assay [4], greater than 100 µM; in assay [5], 56.9 µM; in assay [6], 34.1 µM. For the same molecule, the TGI in assay [7] was 1.35 µM; in [8] it was 0.0102 µM; in assay [9], 0.193 µM; in assay [10] it was greater than 100 µM.

As for `CC(C)OP(=O)(O)c1ncc(-c2ccc(C(F)(F)F)cc2)c(NC2CCCCCC2)n1`, the GI50 in assay [1], in [2], in assay [3], in assay [4], in assay [5] and in assay [6] was greater than 100 µM throughout. The GI50 was greater than 100 µM in assay [7], greater than 100 µM in assay [8], greater than 100 µM in [9] and 55 µM in [10]. For the same molecule, the TGI in assay [1], in assay [2], in assay [3], in [4], in [5] and in [6] was greater than 100 µM throughout. The TGI in assay [7], in [8], in assay [9] and in [10] was greater than 100 µM each time.

As for `COc1ccc(C(O)c2cc3c(N)c(C(=O)Nc4cccc(Br)c4C)sc3nc2C)cc1` (centres undefined), the GI50 in assay [1] was 0.405 µM; in assay [2] it was 0.426 µM; in [3], 0.462 µM; in assay [4], 0.211 µM; in assay [5], 0.261 µM; in assay [6] it was 0.151 µM. Besides, the GI50 in [7] is 0.479 µM; in assay [8], 0.0665 µM; in assay [9], 0.135 µM; in assay [10] it was 0.14 µM. Also, the TGI in assay [1] is greater than 27.8 µM; in [2], 2.84 µM; in [3], 8.96 µM; in [4], greater than 33.3 µM; in assay [5] it was greater than 33.3 µM; in assay [6] it was 18.1 µM. Moreover, the TGI in assay [7] is 15.4 µM; in assay [8], 0.149 µM; in assay [9], 4.54 µM; in assay [10] it was greater than 33.3 µM.

As for `CCOC(=O)[C@@H]1CSC(CC)=C(C(=O)O)N1`, the GI50 in assay [1], in [2], in assay [3], in assay [4], in assay [5] and in assay [6] was greater than 100 µM in each case. Moreover, the GI50 in [7], in [8], in assay [9] and in assay [10] was greater than 100 µM in each case. For the same molecule, the TGI in [1], in assay [2], in assay [3], in assay [4], in [5] and in assay [6] was greater than 100 µM each time. Also, the TGI in assay [7], in assay [8], in assay [9] and in [10] was greater than 100 µM throughout.

Take `CC1(C)C2CCC13C(=O)C1OC3(C2)C2C(=O)c3c(ccc4c3ccc3ccccc34)C(=O)C12` (centres undefined): the GI50 in assay [1] is 70.5 µM; in assay [2], greater than 100 µM; in [3] it was greater than 37.2 µM; in assay [4], greater than 43.5 µM; in [5] it was greater than 100 µM; in [6], 20 µM. Further, the GI50 in [7] was greater than 80.3 µM; in [8] it was greater than 62.2 µM; in [9] it was greater than 100 µM; in assay [10], 1.12 µM. Further, the TGI in [1] is greater than 100 µM; in assay [2] it was greater than 100 µM; in assay [3] it was greater than 53.2 µM; in assay [4], greater than 100 µM; in assay [5] it was greater than 100 µM; in assay [6], 80.1 µM. Also, the TGI was greater than 100 µM in assay [7], greater than 100 µM in assay [8], greater than 100 µM in assay [9] and 82.1 µM in [10].
